Literature values as cited in EP3697221B1, “AQUEOUS SUSPENSION CONCENTRATES BASED ON 2-[(2,4-DICHLOROPHENYL)-METHYL]-4,4'-DIMETHYL-3-ISOXAZOLIDINONE” (Bayer Aktiengesellschaft, priority 2017, dated 2019).

Conditions: water

SMILES	Wasserlöslichkeit
CC1(C)CON(Cc2ccccc2Cl)C1=O [Clomazone, 2-(2-chlorobenzyl)-4,4-dimethyl-1,2-oxazolidin-3-one]	1000 ppm
CC1(C)CON(Cc2ccc(Cl)cc2Cl)C1=O [DCPMI, 2-[(2,4-Dichlorphenyl)-methyl]-4,4'-dimethyl-3-isoxazolidinone]	39,5 ppm
